From patent publication US12414940B2, “Method of treating malignant tumor by azabicyclic compound” (TAIHO PHARMACEUTICAL CO., LTD., priority 2018, dated 2025)

Assays:
solid cancer patients [1] = assay: Phase I study in solid cancer patients: tumor response by RECIST Guideline Version 1.1; assay type: in vivo, human
Description: (§1) Purpose: This study was conducted for the purpose of determining a maximum tolerated dose (MTD) and estimating a recommended dose (RD) and an administration method when compound 1 was administered with one cycle set to 21 days targeting solid cancer patients, and of evaluating safety and observing an antitumor effect when the compound 1 was administered with one cycle set to 21 days targeting the patients, for example.
(§2) Method: The compound 1 was repeatedly administered between meals once a day in Step 1, and orally administered between meals every other day in Step 2. In Step 1, the initial dose was set to 4.8 mg/m^2 (level 1), and the dose of the compound 1 at each level was determined depending on a body surface area. The initial dose of Step 2 (level 1 of Step 2) was set to MTD (mg/m^2/day) of Step 1. The study was continued until the disease progressed or an intolerable adverse event occurred.
(§3) After determination of MTD for once-daily administration, administration was performed by once-daily administration, by alternate-day administration (repeated administration at cycles each involving one-day administration and one-day withdrawal period on the next day), or by a schedule involving administration for 5 consecutive days and 2-day withdrawal period, and evaluation was conducted.
An antitumor effect on tumor was determined according to RECIST Guideline Version 1.1 (European Journal of Cancer 45 (2009) 228-247), and tumor shrinkage was evaluated by comprehensive evaluation on target lesions (lesions equal to or larger than a measurable size depending on a slice width in a diagnosis method (MRI, CT, X ray, etc.) measured at the time of enrollment) and non-target lesions (all lesions except for the target lesions).
The overall response of each case was evaluated according to the following criteria, and the best overall response was evaluated after confirmation of duration of the effect.
The best overall response was evaluated according to the following 5 levels. • CR: After reaching CR first, the CR status was maintained in examination performed after a lapse of at least 4 weeks or longer. • PR: After reaching PR first, the PR status was maintained in examination performed after a lapse of at least 4 weeks or longer. • SD: Neither CR nor PR was attained and no PD was confirmed in examination performed after a lapse of at least 6 weeks or longer from the start of administration. • PD: PD of target lesions or non-target lesions was confirmed without satisfying the criterion of CR, PR and SD, or the appearance of a new lesion was confirmed.
Proportion of cases with best overall response of CR and PR in an analyte population.
Proportion of cases with best overall response of CR, PR, Non-CR/non-PD, or SD continued for 12 weeks or longer in an analyte population.
Patients with non-small cell lung cancer, gastrointestinal stromal tumor, thymic cancer, biliary tract cancer, breast cancer, adenoid cystic cancer, pancreatic cancer, stomach cancer, ovary cancer, skin cancer, neuroblastoma, head and neck cancer, esophageal cancer, kidney cancer, colorectal cancer, sarcoma, mesothelioma, or the like entered the test.

solid cancer patients [2] = assay: Phase I study in solid cancer patients: eye disorder related to treatment (ophthalmologic examination, CTCAE Ver. 4.03); assay type: in vivo
Description: The initial dose of Step 2 (level 1 of Step 2) was set to MTD (mg/m^2/day) of Step 1. The study was continued until the disease progressed or an intolerable adverse event occurred.
as §3
In this test, ophthalmologic examination was conducted in order to evaluate eye disorder.
The ophthalmologic examination was carried out before enrollment, in the duration of administration, and during follow-up. In the duration of administration, ophthalmologic interview, visual acuity examination (corrected), intraocular pressure examination, fundus examination, slit-lamp microscopy, optical coherence tomography (OCT), and color perception examination were carried out for 21 days±1 day from the start of administration. Observation and examination before enrollment were carried out as immediately before the enrollment as possible. In addition to the determined ophthalmologic examination described above, ophthalmologic examination was appropriately carried out when eye problems were found by regular interview by clinical investigators or by declaration from patients themselves.

solid cancer patients [3] = assay: Phase I study in solid cancer patients: determination of maximum tolerated dose (MTD); assay type: in vivo, human; conditions: for MTD: oral
Description: as §1, §2
The dose (mg/body) to a study subject was calculated as described below. Dose (mg/body)=Dose (mg/m^2)×Body surface area (m^2)
The body surface area (BSA) was calculated to the second decimal place by rounding a value off to two decimal places using the formula of DuBois given below. The dose (mg/body) was calculated to an integer by rounding a value off to the closest whole number, and less than 2 mg was cut off because the minimum tablet dose in this study was 2 mg. BSA=([Body weight (kg)]0.425×[Body height (cm)]0.725)×0.007184

[4] = system: patients with local progressive unresectable or metastatic GIST; assay: Study in GIST patients: progression-free survival (RECIST Guideline Version 1.1); assay type: in vivo, human; conditions: 160 mg/body/day oral, 5 consecutive days and 2-day withdrawal period
Description: (§4) Purpose: In order to evaluate the effectiveness and safety, etc. of compound 1, this study was conducted for the purpose of evaluating the effectiveness and safety, etc. of the compound 1, targeting patients with local progressive unresectable or metastatic GIST who received the administration of imatinib, sunitinib or regorafenib in the past.
(§5) From the results of the study of Example 1, this study was carried out according to a schedule involving administration for 5 consecutive days and 2-day withdrawal period. The daily dose of the compound 1 was 160 mg/body/day for oral administration. One cycle was set to 21 days. The administration of the compound 1 was continued until the end date of the clinical trial or any of predetermined criterion for discontinuation were applicable.
For the evaluation of an antitumor effect, CT scan was carried out before the start of administration, every 3 weeks for subsequent 6 weeks, every 6 weeks for subsequent 3 months, and then every 8 weeks until the end of the test. Progression-free survival (PFS) stipulated by RECIST Guideline Version 1.1 was evaluated.

[5] = system: patients with local progressive unresectable or metastatic GIST; assay: Study in GIST patients: safety, tolerability and eye disorder; assay type: in vivo, human; conditions: 160 mg/body/day oral
Description: as §4, §5
For the evaluation of eye disorder, interview, visual acuity examination (corrected), intraocular pressure measurement, fundus examination, slit-lamp microscopy, optical coherence tomography (OCT), and color perception examination were carried out at the time of a baseline within 14 days before enrollment and at the completion of administration of the study drug.
Interview, visual acuity examination (corrected), intraocular pressure measurement, fundus examination, optical coherence tomography (OCT), slit-lamp microscopy, and color perception examination were further carried out as much as possible every 12 weeks after the start of administration of the study drug and every 24 weeks on week 48 or later (within ±7 days).
In addition to the determined ophthalmologic examination described above, ophthalmologic examination was appropriately carried out when eye problems were found by regular interview by clinical investigators or by declaration from patients themselves.

rat eye tissue = assay: Histopathological study in rat eye tissue (hematoxylin and eosin, TUNEL); assay type: in vivo, Sprague-Dawley (SD) rats
[6] = Quantification of plasma, tumor and retinal tissue exposure in tumor-bearing rats; assay type: in vivo, F344 nude rats
Description: After the administration, plasma, the retina, and tumor were collected according to a sampling schedule. The retina or tumor samples were homogenized in phosphate-buffered saline. The plasma and the homogenized samples were analyzed by liquid chromatography-tandem mass spectrometry or high-performance liquid chromatography. The pharmacokinetics of the compound 1 were calculated by use of the non-compartmental analysis method (Methods Mol Biol 2012; 929: 377-89).

[7] = Quantification of plasma and retinal tissue exposure after intravenous administration; assay type: in vivo, F344 nude rats; conditions: 30 minutes and 6 hours after administration
Description: Method: Compound 1 was administered to tumor-bearing F344 nude rats by intravenous administration. Plasma and the retina were collected 30 minutes and 6 hours after the administration. The retina samples were homogenized in phosphate-buffered saline. The plasma and the homogenized samples were analyzed by liquid chromatography-tandem mass spectrometry or high-performance liquid chromatography. The pharmacokinetics of the compound 1 were calculated by use of the non-compartmental analysis method (Methods Mol Biol 2012; 929: 377-89).

[8] = system: progressive or unresectable GIST; conditions: group given regorafenib, third-line treatment of progressive or unresectable GIST; cited from earlier work
[9] = QD Step 1 Dose escalation, Lv. 6 (107.5 mg/m^2) n = 6
[10] = QOD Step 2 Expansion (340 mg/body) n = 6
[11] = administration for consecutive days
[12] = 5 consecutive days and 2-day withdrawal period
[13] = 12 mg/kg/day oral every day for 2 weeks, eyes collected 24 hours after final dose
[14] = rats, administered for consecutive days (Non-Patent Literature 6)
[15] = oral administration, tumor-bearing rats

**Q.** What does the source list for CCc1cc(C(N)=O)ccc1-n1nc(C(C)C)c2c(-n3cnc(-c4cnn(C)c4)c3)ccnc21 [compound 1, 3-Ethyl-4-[3-(1-methylethyl)-4-[4-(1-methyl-1H-pyrazol-4-yl)-1H-imidazol-1-yl]-1H-pyrazolo[3,4-b]pyridin-1-yl]benzamide]?
**A.** DCR (≥12 weeks), % of patients (solid cancer patients [1]; QD × 5, n = 18): (38.9) %; DCR (≥12 weeks), number of patients (solid cancer patients [1]; QD × 5, n = 18): 7; NE, % of patients (solid cancer patients [1]; QD × 5, n = 18): (5.6) %; NE, number of patients (solid cancer patients [1]; QD × 5, n = 18): 1; PD, % of patients (solid cancer patients [1]; QD × 5, n = 18): (44.4) %; PD, number of patients (solid cancer patients [1]; QD × 5, n = 18): 8; PR, % of patients (solid cancer patients [1]; QD × 5, n = 18): (0.0) %; PR, number of patients (solid cancer patients [1]; QD × 5, n = 18): 0; RR, % of patients (solid cancer patients [1]; QD × 5, n = 18): (0.0) %; RR, number of patients (solid cancer patients [1]; QD × 5, n = 18): 0; DCR (≥12 weeks), % of patients (solid cancer patients [1]; QD, n = 16): (31.3) %; DCR (≥12 weeks), number of patients (solid cancer patients [1]; QD, n = 16): 5; NE, % of patients (solid cancer patients [1]; QD, n = 16): (12.5) %; NE, number of patients (solid cancer patients [1]; QD, n = 16): 2; PD, % of patients (solid cancer patients [1]; QD, n = 16): (31.3) %; PD, number of patients (solid cancer patients [1]; QD, n = 16): 5; PR, % of patients (solid cancer patients [1]; QD, n = 16): (12.5) %; PR, number of patients (solid cancer patients [1]; QD, n = 16): 2; RR, % of patients (solid cancer patients [1]; QD, n = 16): (12.5) %; RR, number of patients (solid cancer patients [1]; QD, n = 16): 2; DCR (≥12 weeks), % of patients (solid cancer patients [1]; QOD, n = 26): (14.4) %; DCR (≥12 weeks), number of patients (solid cancer patients [1]; QOD, n = 26): 4; NE, % of patients (solid cancer patients [1]; QOD, n = 26): (3.8) %; NE, number of patients (solid cancer patients [1]; QOD, n = 26): 1; PD, % of patients (solid cancer patients [1]; QOD, n = 26): (57.7) %; PD, number of patients (solid cancer patients [1]; QOD, n = 26): 15; PR, % of patients (solid cancer patients [1]; QOD, n = 26): (3.8) %; PR, number of patients (solid cancer patients [1]; QOD, n = 26): 1; RR, % of patients (solid cancer patients [1]; QOD, n = 26): (3.8) %; RR, number of patients (solid cancer patients [1]; QOD, n = 26): 1; Eye Disorder, G2 (solid cancer patients [2]; QD Step 1 Dose escalation, Lv. 1 to 5 (4.8-76.8 mg/m^2) n = 7): 1 (14.3) n (%); Eye Disorder, G2 (solid cancer patients [2]; [9]): 2 (33.3) n (%); Eye disorder, G1 (solid cancer patients [2]; [9]): 3 (50.0) n (%); Eye Disorder, ≥G3 (solid cancer patients [2]; QD Step 1 Dose escalation, Lv. 7 (150.5 mg/m^2) n = 3): 2 (66.7) n (%); Eye disorder, G1 (solid cancer patients [2]; QD × 5 (5-day administration 2-day drug holiday) Step 1 Expansion (160 mg/body) n = 19): 5 (26.3) n (%); Eye disorder, G1 (solid cancer patients [2]; QOD Step 2 Dose escalation, Lv. 1 to 2 (107.5-150.5 mg/m^2) n = 9): 2 (22.2) n (%); Eye disorder, G1 (solid cancer patients [2]; QOD Step 2 Dose escalation, Lv. 3 (210.7 mg/m^2) n = 6): 1 (16.7) n (%); Eye disorder, G1 (solid cancer patients [2]; QOD Step 2 Dose escalation, Lv. 4 (295.0 mg/m^2) n = 5): 1 (16.7) n (%); Eye Disorder, G2 (solid cancer patients [2]; [10]): 1 (20.0) n (%); Eye disorder, G1 (solid cancer patients [2]; [10]): 3 (60.0) n (%); degree of eye disorder at MTD (solid cancer patients [2]; alternate-day administration group): limited to grade 1; degree of eye disorder at MTD (solid cancer patients [2]; group given administration for 5 consecutive days and 2-day withdrawal period): limited to grade 1; Eye Disorder, G2 (solid cancer patients [2]; human, in vivo): 4 (6.6) n (%); Eye Disorder, ≥G3 (solid cancer patients [2]; human, in vivo): 2 (3.3) n (%); Eye disorder, G1 (solid cancer patients [2]; human, in vivo): 14 (23.0) n (%); side effect on vision (solid cancer patients [2]; phase I clinical trial, administration for consecutive days): caused a side effect for vision impairment; MTD converted to the fixed dose (solid cancer patients [3]; [11]): 160 mg/body/day; MTD (solid cancer patients [3]; [11]): 107.5 mg/m^2/day; MTD converted to the fixed dose (solid cancer patients [3]; alternate-day administration): 340 mg/body/day; MTD (solid cancer patients [3]; alternate-day administration): 210 mg/m^2/day; median PFS [4]: 4.4 months; frequency of occurrence of eye disorder [5, 12]: 20%; grade of eye disorder in all the patients [5, 12]: grade 1; tolerability [5, 12]: good tolerability; related adverse events observed ([5]; 5 consecutive days and 2-day withdrawal, reversible by discontinuation or decrease in dose): digestive tract disorder and elevated plasma creatinine levels; elevation of the number of TUNEL-positive apoptotic cells (rat eye tissue; [13]): not observed; histopathological change in the outer nuclear layer of the retina (rat eye tissue; [13]): did not cause any histopathological change; ocular toxicity (rat eye tissue; [14]): without exhibiting ocular toxicity; distribution in tumor, retina and plasma [6, 15]: larger amount in tumor than in the retina and plasma; time to removal from the retina [6, 15]: ≤ 24 h; time to elimination from the rat retina [6, 14]: ≤ 24 h; distribution in retina versus plasma [7]: lower in the retina than in plasma

**Q.** With CNC(=O)c1cc(Oc2ccc(NC(=O)Nc3ccc(Cl)c(C(F)(F)F)c3)c(F)c2)ccn1 [regorafenib] as the compound, how does the “median PFS” value [8] read?
**A.** 4.8 month
